Values of other authors in publication PMC6819114, “Peptide-conjugated oligonucleotides evoke long-lasting myotonic dystrophy correction in patient-derived cells and mice” (The Journal of Clinical Investigation, 2019).

Excerpt: Among strategies to improve delivery of ASOs in DM1 skeletal muscles, cell-penetrating peptide conjugates offer an attractive avenue ([22]–[24]). Indeed, systemic administration of advanced Pip6a peptides conjugated with splice-switch oligonucleotides has shown promising results in DMD mice by restoring a truncated but functional dystrophin ([25]). Pip6a is a cell-penetrating peptide composed of a hydrophobic core region flanked on each side by arginine-rich domains containing β-alanine and aminohexanoyl spacers. This peptide sequence has the ability to deliver associated cargoes across the pl ...

- stability to serum proteolysis: stable
Substance: Ac-(RXRRBRRXRYQF LIRXRBRXRB)-CO OH [Pip6a, arginine-rich cell-penetrating peptide: hydrophobic core flanked by arginine-rich domains containing β-alanine and aminohexanoyl spacers]
